Laboratory results published in patent publication US6117859A, “Method of relieving chronic inflammation by using 5-alkylsulfonylsalicylanilides” (The Research Foundation of State University of New York, priority 1999, dated 2000).

Test system: TPA treated mouse ear skin
Assay: Histopathology of ear biopsies after multiple doses of TPA (epidermal thickness, dermal cellularity)
Type: in vivo, mouse (female CD-1)
Experimental: The assay used female CD-1 mice (7-9 weeks of age). Following a 2-week quarantine, mice were randomly assigned to test groups (5 mice/groups). TPA (10 uL of 0.01 TPA in acetone) was administered to both the inner and outer surface of each ear (2μg/ear) on day 0,2,4,7, and 9 on protocol. On Day 7,8 and 9, two applications of test article were applied to each ear 2 and 4 hours after dosing with TPA. The test articles were administered in 10 uL aliquots to both the inner and outer surface of each ear (20 μl total/dose). The candidate drugs were tested at several different concentrations (e.g., 5, 1.25, and 0.125 mg/ear) to determine a maximum effective dose within a range that could be effectively applied. Hydrocortisone-17-valerate (HCV, 20μg/ear) was employed as a positive control. Mice were sacrificed at Day 10 on protocol and uniform punch biopsies (approximately 8 mm dia.) were taken from each ear. While on protocol, dermal irritation was scored semiquantitatively at Day 1,3,5,8, and 10.
Inhibition of TPA stimulated increased ear weight was used as an initial measure of efficacy for all of the agents tested. One biopsy from each mouse was also quick frozen and stored at -70° C. for later assay of myleoperoxidase, an enzyme associated with infiltrating PMN, or other measure of efficacy. The remaining biopsy from each mouse treated with Trifluorosal or HCV was fixed in formalin and processed for histopathologic evaluation, including measurement of cellular infiltration (PMNs, endothelial cells, macrophages) and epidermal thickness at 20 random sites along the length of the specimen.
In order to confirm the subjective observations, quantitative determinations of 3 parameters (epidermal thickness, dermal thickness, and dermal cellularity) in the skin of negative controls (acetone), positive controls (TPA), and TPA treated skin treated with 3 doses of test article (Trifluorosal) and hydrocortisone were carried out. Epidermal thickness reflects the reactive proliferative activity induced by TPA in the […]: dermal thickness reflects primarily Ad edema but may also be affected by other phenomena, such as formation of granulation tissue, collagen synthesis, the activity of myofibroblasts, etc. Cellularity of the dermis is frequently used as a surrogate marker of inflammatory changes in the dermis.
Determination of the epidermal thickness was performed under the microscope with a calibrated scale placed in the eyepiece. Ten determinations were carried out in the epidermis covering the outside of the ear using a 40× objective and a 10× eyepiece (400× total). The measurements were taken from the basal side of the basal layer (basement membrane) to the outer side of the last nucleated cell of the […]. The average of the 10 measurements expressed in microns was entered in the table.
Determination of dermal thickness was performed using a similar technique. To avoid variability caused by the difference in sizes between the base and tip of the ear, only 3 measurements were performed in the center of the sample. The measurements were performed from the basement membrane of the external and internal epithelial and therefore include, in addition to both dermis (external and internal), the cartilage.
Cellularity of the dermis was calculated by projecting a calibrated grid into the dermis and counting cells in the known area of the dermis. Areas of hair follicles or sebaceous glands were avoided. Five fields were counted and the results were adjusted to the number of cells in 1,000 square microns.
The results of individual animals were entered in the table and the averages and standard deviation were calculated using an EXCEL database. In addition, the results were also expressed as a percentage of the control (acetone treated). Furthermore, the percentage of inhibition of the test articles were calculated using the following formula: [formula]

SMILES: CCCCCCCCCCCCS(=O)(=O)c1ccc(O)c(C(=O)Nc2cccc(C(F)(F)F)c2)c1 [TMF-12]
- % Inhibition, Dermal Cellularity (1.25 mg/ear): 24.6%
- % Inhibition, Epidermal Thickness (1.25 mg/ear): 48.0%
- % Inhibition, Dermal Cellularity (2.50 mg/ear): 64.3%
- % Inhibition, Epidermal Thickness (2.50 mg/ear): 11.4%
- % Inhibition, Dermal Cellularity (5.00 mg/ear): 47.6%
- % Inhibition, Epidermal Thickness (5.00 mg/ear): 30.0%
- Blood vessel prominence (in words) (histopathology): Blood vessels were not as prominent
- Cellularity of the dermis (in words) (histopathology, FIG. 1): reduced the epidermal thickness as well as the cellularity of the dermis
- Epidermal thickness (in words) (histopathology, FIG. 1): reduced the epidermal thickness
